Test [1] deals with C. albicans E81022 strain. Description: Experimental systemic candidal infection model in mice. It counts as in vivo. Particulars: peroral, 3 times every 4 hours, female ICR mice, observed until 14 days after infection. Here is the method:
A standing culture of C. albicans E81022 strain was carried out for 48 hours at 30° C. in sabouraud dextrose agar medium (SDA), the recovered fungal cells were suspended in sterilized physiological saline. By counting the fungal number on cytometry plate, the suspension was diluted to 2×10^7 cells/mL with sterilized physiological saline to serve fungal inoculum.
The fungal inoculum was used in the amounts of 0.2 mL to inoculate 4.5 to 5.5 week-old female ICR mice in the tail vein (4×10^6 cells/mouse).
From 0.5 to 1 hour after fungal inoculation, 0.2 mL of agent solution (dissolved or suspended in sterilized physiological saline containing 6.5% dimethyl sulfoxide and 3.5% Tween 80) was administered into the stomach using a peroral probe, 3 times every 4 hours. The agent concentration was 2.5 mg/kg or 10 mg/kg, and the number of animals in one group was 5 animals.
The protective effect was determined by observing life/death until 14 days after infection and calculating the mean survival days.

In test [2] the test system is A. fumigatus Tsukuba strain. Description: Anti-Aspergillus activity, MIC measurement. The class given is cell-based. Particulars: RPMI1640, 42-48 hours at 35° C., visual inspection, read-out: Anti-Aspergillus Activity (minimum inhibitory concentration, MIC). The procedure, abridged: (§1)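 C. albicans CAF2-1 was grown 48 h at 30° C. in SDB and diluted in RPMI1640 to 1.2×10^3 cells/mL. Frozen A. fumigatus Tsukuba was diluted to 4.5×10^3 cells/mL. Compounds, two-fold serially diluted in DMSO from 2.5 mg/mL, were cultured aerobically with fungi for 42-48 h at 35° C.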

Test [3] relates to C. albicans CAF2-1 strain. Description: Anti-Candida activity, MIC measurement. It counts as cell-based. Particulars: CAF21STRAIN, C. albicans CAF2-1, RPMI1640, 42-48 hours at 35° C., visual inspection, read-out: Anti-Candida Activity (minimum inhibitory concentration, MIC). The procedure, abridged: as §1

The text below walks through data of US8158657B2, “Heterocycles substituted pyridine derivatives and antifungal agent containing thereof” (Eisai R&D Management Co., Ltd., priority 2005, dated 2012).

Converted amounts (≈) assume the structure as drawn.

As to `Nc1ccc(-c2cc(Cc3ccc(OCc4nccs4)cc3)no2)c(N)n1` [Example 151, 3-(3-(4-(Thiazol-2-ylmethoxy)-benzyl)-isoxazol-5-yl)-pyridin-2,6-diamine], the “Mean Survival Days” value in test [1] (2.5 mg/kg) came to 7.0 days; in test [1] (10 mg/kg) it was 14.0 days. Further, the MIC in test [2] worked out at 0.39 µg/mL (≈ 1.03 µM); in test [3], 0.78 µg/mL (≈ 2.06 µM).
Consider `Nc1ccc(-c2cc(Cc3ccc(OCc4ccccc4)nc3)no2)c(N)n1` [Example 25, 3-(3-(6-benzyloxy-pyridin-3-ylmethyl)-isoxazol-5-yl)-pyridine-2,6-diamine], for which the “Mean Survival Days” value in test [1] (2.5 mg/kg) turned out to be 12.2 days. The MIC in test [2] and in test [3] was 0.2 µg/mL (≈ 0.536 µM) in each case.
As for `Cc1ccc(Cc2ccc(Cc3cc(-c4ccc(N)nc4N)on3)cc2)o1` [Example 105, 3-(3-(4-(5-Methyl-furan-2-ylmethyl)-benzyl)-isoxazol-5-yl)-pyridin-2,6-diamine], the “Mean Survival Days” value in test [1] (2.5 mg/kg) stood at 5.4 days; in test [1] (10 mg/kg) it was 12.8 days. The MIC in test [2] and in test [3] was 0.2 µg/mL (≈ 0.555 µM) each time.
For `Nc1ncccc1-c1cc(Cc2ccc(OCc3cccc(Cl)n3)cc2)no1` [Example 52, 3-(3-(4-(6-Chloro-pyridin-2-ylmethoxy)-benzyl)-isoxazol-5-yl)-pyridin-2-ylamine], the results for the “Mean Survival Days” value in test [1] (2.5 mg/kg) and in test [1] (10 mg/kg) were 10.6 days and 13.4 days, respectively. Also, the MIC in test [2] and in test [3] was 0.39 µg/mL (≈ 0.993 µM) throughout.
Take `Nc1ncccc1-c1cc(Cc2ccc(COc3ccccn3)cc2)no1` [Example 2, 3-(3-(4-(Pyridin-2-yloxymethyl)-benzyl)-isoxazol-5-yl)-pyridin-2-ylamine]: the “Mean Survival Days” value in test [1] (2.5 mg/kg) amounted to 13.2 days; in test [1] (10 mg/kg) it was 14.0 days. The MIC in test [2] came to 0.2 µg/mL (≈ 0.558 µM); in test [3] it was 0.05 µg/mL (≈ 0.14 µM).
The like results for `Nc1ncccc1-c1cc(Cc2ccc(CNc3ccccc3)cc2)no1` [Example 73, 3-(3-(4-Phenylaminomethyl-benzyl)-isoxazol-5-yl)-pyridin-2-ylamine] were, in that order, 4.4 days, 12.6 days, 0.39 µg/mL (≈ 1.09 µM) and 0.1 µg/mL (≈ 0.281 µM).
The matching figures for `CCCCOCc1ccc(Cn2cc(-c3cccnc3N)cn2)cc1` [Example 33, 3-(1-(4-Butoxymethyl-benzyl)-1H-pyrazol-4-yl)-pyridin-2-ylamine]: 2.4 days, 8.4 days, 0.78 µg/mL (≈ 2.32 µM) and 0.39 µg/mL (≈ 1.16 µM).
The like results for `Nc1ncccc1-c1cc(Cc2ccc(OCc3cc(Cl)ccn3)cc2)no1` [Example 51, 3-(3-(4-(4-Chloro-pyridin-2-ylmethoxy)-benzyl)-isoxazol-5-yl)-pyridin-2-ylamine] were, in that order, 13.5 days, 14.0 days, 0.39 µg/mL (≈ 0.993 µM) and 0.1 µg/mL (≈ 0.255 µM).
`Nc1ncccc1-c1cc(Cc2ccc(OCc3ccccc3)cc2)on1` [Example 29, 3-(5-(4-Benzyloxy-benzyl)-isoxazol-3-yl)-pyridin-2-ylamine]: the “Mean Survival Days” value in test [1] (10 mg/kg) came out at 11.4 days. The results for the MIC in test [2] and in test [3] were 0.2 µg/mL (≈ 0.56 µM) and 0.39 µg/mL (≈ 1.09 µM), respectively.
In the case of `Nc1ccc(-c2cc(Cc3ccc(Oc4ccccc4)cc3)no2)c(N)n1` [Example 17, 3-(3-(4-Phenoxy-benzyl)-isoxazol-5-yl)-pyridin-2,6-diamine], the “Mean Survival Days” value in test [1] (2.5 mg/kg) turned out to be 8.2 days; in test [1] (10 mg/kg), 13.0 days. In addition, the MIC in test [2] worked out at 0.2 µg/mL (≈ 0.558 µM); in test [3] it was 0.78 µg/mL (≈ 2.18 µM).
The matching figures for `Nc1ccc(-c2cc(Cc3ccc(Oc4cccc(F)c4)nc3)no2)c(N)n1` [Example 131, 3-(3-(6-(3-Fluoro-phenoxy)-pyridin-3-ylmethyl)-isoxazol-5-yl)-pyridin-2,6-diamine]: 12.6 days, 12.8 days, 0.2 µg/mL (≈ 0.53 µM) and 0.2 µg/mL (≈ 0.53 µM).
The like results for `Nc1ncccc1-c1cc(Cc2ccc(COc3cccc(F)n3)cc2)no1` [Example 55, 3-(3-(4-(6-Fluoro-pyridin-2-yloxymethyl)-benzyl)-isoxazol-5-yl)-pyridin-2-ylamine] were, in that order, 13.8 days, 14.0 days, 0.1 µg/mL (≈ 0.266 µM) and 0.05 µg/mL (≈ 0.133 µM).
The matching figures for `Nc1ccc(-c2cnn(Cc3ccc(OCc4ccccc4)cc3)c2)c(N)n1` [Example 36, 3-(1-(4-Benzyloxy-benzyl)-1H-pyrazol-4-yl)-pyridin-2,6-diamine]: 9.4 days, 14.0 days, 0.78 µg/mL (≈ 2.1 µM) and 0.39 µg/mL (≈ 1.05 µM).
As to `Nc1ccc(-c2cc(Cc3ccc(CNc4ccccc4)cc3)no2)c(N)n1` [Example 133, 3-(3-(4-Phenylaminomethyl-benzyl)-isoxazol-5-yl)-pyridin-2,6-diamine], the results for the “Mean Survival Days” value in test [1] (2.5 mg/kg) and in test [1] (10 mg/kg) were 7.0 days and 13.4 days, respectively. Besides, the MIC was found to be 0.39 µg/mL (≈ 1.05 µM) in test [2] and 0.2 µg/mL (≈ 0.538 µM) in test [3].
Consider `Nc1ccc(-c2cc(Cc3ccc(Oc4ccccc4)nc3)no2)c(N)n1` [Example 40, 3-(3-(6-Phenoxy-pyridin-3-ylmethyl)-isoxazol-5-yl)-pyridin-2,6-diamine], for which the “Mean Survival Days” value in test [1] (2.5 mg/kg) is 11.6 days; in test [1] (10 mg/kg) it was 14.0 days. In addition, the MIC in test [2] and in test [3] was 0.39 µg/mL (≈ 1.09 µM) throughout.
As to `Nc1ccc(-c2cc(Cc3ccc(COc4ccccc4)nc3)no2)c(N)n1` [Example 111, 3-(3-(6-Phenoxymethyl-pyridin-3-ylmethyl)-isoxazol-5-yl)-pyridin-2,6-diamine], in test [1] (2.5 mg/kg), the “Mean Survival Days” value amounted to 13.6 days. The values for the MIC in test [2] and in test [3] were 0.78 µg/mL (≈ 2.09 µM) and 0.39 µg/mL (≈ 1.04 µM), respectively.
Consider `Nc1ncccc1-c1cnn(Cc2ccc(OCc3ccccn3)cc2)c1` [Example 192, 3-(1-(4-(Pyridin-2-ylmethoxy)-benzyl)-1H-pyrazol-4-yl)-pyridin-2-ylamine], for which the “Mean Survival Days” value worked out at 3.2 days in test [1] (2.5 mg/kg) and 9.4 days in test [1] (10 mg/kg). The results for the MIC in test [2] and in test [3] were 1.56 µg/mL (≈ 4.36 µM) and 0.39 µg/mL (≈ 1.09 µM), respectively.
The matching figures for `Nc1ccc(-c2cc(Cc3ccc(COc4ccccn4)cc3)no2)c(N)n1` [Example 14]: 13.4 days, 14.0 days, 0.39 µg/mL (≈ 1.04 µM) and 0.39 µg/mL (≈ 1.04 µM).
The matching figures for `Cc1ccnc(OCc2ccc(Cc3cc(-c4cccnc4N)on3)cc2)c1` [Example 43, 3-(3-(4-(4-Methyl-pyridin-2-yloxymethyl)-benzyl)-isoxazol-5-yl)-pyridin-2-ylamine]: 10.6 days, 14.0 days, 0.39 µg/mL (≈ 1.05 µM) and 0.2 µg/mL (≈ 0.537 µM).
With `Cc1ccnc(COc2ccc(Cc3cc(-c4cccnc4N)on3)cc2)c1` [Example 11, 3-(3-(4-(4-Methyl-pyridin-2-ylmethoxy)-benzyl)-isoxazol-5-yl)-pyridin-2-ylamine], the entries for the “Mean Survival Days” value in test [1] (2.5 mg/kg) and in test [1] (10 mg/kg) were 8.2 days and 13.6 days, respectively. In addition, the results for the MIC in test [2] and in test [3] were 0.39 µg/mL (≈ 1.05 µM) and 0.1 µg/mL (≈ 0.269 µM), respectively.
Take `Nc1ccc(-c2cc(Cc3ccc(Oc4ccc(F)cc4)s3)no2)c(N)n1` [Example 155]: the “Mean Survival Days” value is 10.4 days in test [1] (2.5 mg/kg) and 13.0 days in test [1] (10 mg/kg). Moreover, the MIC in test [2] and in test [3] was 0.1 µg/mL (≈ 0.261 µM) throughout.
Consider `Nc1ccc(-c2cc(Cc3ccc(OCc4ccccc4)cc3)no2)c(N)n1` [Example 13, 3-(3-(4-Benzyloxy-benzyl)-isoxazol-5-yl)-pyridin-2,6-diamine], for which the “Mean Survival Days” value worked out at 13.8 days in test [1] (2.5 mg/kg) and 14.0 days in test [1] (10 mg/kg). Besides, the results for the MIC in test [2] and in test [3] were 0.1 µg/mL (≈ 0.269 µM) and 0.2 µg/mL (≈ 0.537 µM), respectively.
The matching figures for `Nc1ccc(-c2cc(Cc3ccc(COc4ccccn4)cc3)no2)cn1` [Example 176]: 12.6 days, 13.4 days, 0.2 µg/mL (≈ 0.558 µM) and 0.2 µg/mL (≈ 0.558 µM).
The matching figures for `Nc1ccc(-c2cc(Cc3ccc(Oc4ccc(F)cc4)nc3)no2)c(N)n1` [Example 135, 3-(3-(6-(4-Fluoro-phenoxy)-pyridin-3-ylmethyl)-isoxazol-5-yl)-pyridin-2,6-diamine]: 11.0 days, 13.4 days, 0.39 µg/mL (≈ 1.03 µM) and 0.78 µg/mL (≈ 2.07 µM).
For `Nc1ncccc1-c1cc(Cc2ccc(Cc3ccc(Cl)o3)cc2)no1` [Example 62, 3-(3-(4-(5-Chloro-furan-2-ylmethyl)-benzyl)-isoxazol-5-yl)-pyridin-2-ylamine], in test [1] (2.5 mg/kg), the “Mean Survival Days” value amounted to 10.2 days. The MIC in test [2] and in test [3] was 0.2 µg/mL (≈ 0.547 µM) throughout.
